Test results taken from publication PMC6982053, “GABAA Receptor Ligands Often Interact with Binding Sites in the Transmembrane Domain and in the Extracellular Domain—Can the Promiscuity Code Be Cracked?” (International Journal of Molecular Sciences, 2020).

Target: T1, GABAA receptor α1β1 (β1 subunit) (Rattus norvegicus, UniProt P15431+P62813)
T1 construct: gene Gabrb1; rat α1β1 expressed in Xenopus laevis oocytes; with GABAA receptor α1 subunit
Assay: two-electrode voltage clamp, modulation of GABA EC3-5 current (low efficacy)
Assay type: cell-based

T1 sequence (P15431 26-474): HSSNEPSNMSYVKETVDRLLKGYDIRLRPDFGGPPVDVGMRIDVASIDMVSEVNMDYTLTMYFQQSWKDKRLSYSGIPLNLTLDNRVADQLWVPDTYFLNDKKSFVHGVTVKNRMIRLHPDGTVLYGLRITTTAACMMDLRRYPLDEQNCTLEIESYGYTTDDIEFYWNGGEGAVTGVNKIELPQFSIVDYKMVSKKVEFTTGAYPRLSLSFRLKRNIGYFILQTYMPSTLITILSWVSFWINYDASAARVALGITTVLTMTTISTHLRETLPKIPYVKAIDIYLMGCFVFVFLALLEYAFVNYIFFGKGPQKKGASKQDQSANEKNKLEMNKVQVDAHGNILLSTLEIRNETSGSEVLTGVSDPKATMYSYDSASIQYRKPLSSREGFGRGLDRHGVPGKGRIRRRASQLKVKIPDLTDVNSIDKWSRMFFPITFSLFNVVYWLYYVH
T1 sequence (P62813 28-455): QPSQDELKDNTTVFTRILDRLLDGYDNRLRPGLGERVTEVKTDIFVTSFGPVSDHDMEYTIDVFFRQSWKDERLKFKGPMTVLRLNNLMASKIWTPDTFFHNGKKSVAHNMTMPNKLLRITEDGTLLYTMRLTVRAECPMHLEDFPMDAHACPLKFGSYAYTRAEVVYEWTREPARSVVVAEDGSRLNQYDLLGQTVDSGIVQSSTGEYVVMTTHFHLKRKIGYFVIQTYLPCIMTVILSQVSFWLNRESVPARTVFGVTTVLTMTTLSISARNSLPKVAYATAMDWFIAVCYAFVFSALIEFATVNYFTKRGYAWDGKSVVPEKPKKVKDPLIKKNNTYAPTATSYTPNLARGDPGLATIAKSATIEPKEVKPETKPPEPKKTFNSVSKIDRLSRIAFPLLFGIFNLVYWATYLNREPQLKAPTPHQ

With `O=C(O)c1[nH]c2ccc(Cl)cc2c1/N=N/c1ccc(Br)cc1` [MTI163, (E)-3-((4-bromophenyl)diazenyl)-5-chloro-1H-indole-2-carboxylic Acid] the EC50 was 7.65 µM.
